Legend:
SH-SY5Y cells [1] = experiment: LDH release, 6-OHDA-induced toxicity; settings: 100 μM 6-OHDA, 24 h
MAO-B [2] = molecular target: T1, MAO-B (Mus musculus, UniProt Q8BW75); experiment: In vitro MAO inhibition in mouse brain homogenate, benzylamine substrate; type: biochemical; settings: substrate of MAO B, control mouse brain homogenates
T1 construct: Brain homogenates from male Swiss mice were first characterized in terms of their MAOs activity; from tissue; host or cells: whole brain homogenate of male Swiss mice
T1 sequence (Q8BW75 1-520): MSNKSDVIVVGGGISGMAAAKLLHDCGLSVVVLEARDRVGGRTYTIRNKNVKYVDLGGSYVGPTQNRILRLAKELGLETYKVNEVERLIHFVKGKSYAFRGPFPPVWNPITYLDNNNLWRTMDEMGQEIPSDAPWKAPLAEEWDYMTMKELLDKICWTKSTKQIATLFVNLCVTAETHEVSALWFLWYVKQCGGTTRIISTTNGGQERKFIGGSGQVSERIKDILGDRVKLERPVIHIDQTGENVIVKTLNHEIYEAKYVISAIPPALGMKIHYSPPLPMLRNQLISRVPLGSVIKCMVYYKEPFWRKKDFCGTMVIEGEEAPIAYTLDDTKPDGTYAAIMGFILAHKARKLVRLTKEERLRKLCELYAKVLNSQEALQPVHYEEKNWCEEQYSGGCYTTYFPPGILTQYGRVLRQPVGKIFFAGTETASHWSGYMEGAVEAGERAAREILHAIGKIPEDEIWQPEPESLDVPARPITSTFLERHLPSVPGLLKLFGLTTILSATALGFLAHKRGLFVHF

Swiss mice [3] = experiment: Hole–board test
hMAO-A = molecular target: T2, hMAO-A (Homo sapiens, UniProt P21397); experiment: hMAO-A inhibition, HRP–Amplex Red coupled fluorimetric assay; type: biochemical; settings: supplement csv; RA at 100 micromolar
T2 construct: purchased Sigma Aldrich; host or cells: baculovirus-infected insect cells (BTI-TN-5B1-4)
T2 sequence (P21397 1-527): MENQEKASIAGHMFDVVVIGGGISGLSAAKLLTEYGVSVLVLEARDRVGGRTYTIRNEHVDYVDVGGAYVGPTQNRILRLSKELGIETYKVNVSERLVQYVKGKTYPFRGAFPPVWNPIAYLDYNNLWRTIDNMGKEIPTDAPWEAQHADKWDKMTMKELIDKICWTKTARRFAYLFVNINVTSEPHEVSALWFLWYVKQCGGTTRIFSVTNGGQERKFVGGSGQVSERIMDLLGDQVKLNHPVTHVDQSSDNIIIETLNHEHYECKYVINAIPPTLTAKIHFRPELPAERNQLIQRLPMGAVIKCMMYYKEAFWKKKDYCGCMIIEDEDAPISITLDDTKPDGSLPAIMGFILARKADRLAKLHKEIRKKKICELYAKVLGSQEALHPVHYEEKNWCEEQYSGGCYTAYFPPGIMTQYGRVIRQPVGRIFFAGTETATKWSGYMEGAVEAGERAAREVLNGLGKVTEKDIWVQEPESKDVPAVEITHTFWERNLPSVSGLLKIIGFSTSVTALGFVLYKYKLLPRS

Swiss mice [4] = experiment: Locomotor activity test; type: in vivo, mouse
[5] = Thermodynamic solubility in PBS; type: physicochemical; settings: PBS (pH 7.4), 37 °C, 24 h, hydrochloride salts
MAO-B [6] = molecular target: T1, MAO-B; experiment: Ex vivo MAO inhibition in brain homogenates of treated mice, benzylamine substrate; settings: 10 days 0.3 mg/kg ip, with or without haloperidol, two-way ANOVA
Swiss mice [7] = experiment: Haloperidol-induced catalepsy test; type: in vivo, mouse
MAO-A/B = experiment: In vitro MAO inhibition in mouse brain homogenate, p-tyramine substrate; type: biochemical; settings: 50 μM compound, homogenate from nontreated mice
5-HT1A receptor = molecular target: T3, 5-HT1A receptor (Rattus norvegicus, UniProt P19327); experiment: [3H]-8-OH-DPAT radioligand binding assay, rat cortex membranes; settings: [3H]-8-OH-DPAT binding, means ±SEM
T3 construct: from tissue; host or cells: rat (male Wistar) brain cortex membranes
T3 sequence (P19327 1-422): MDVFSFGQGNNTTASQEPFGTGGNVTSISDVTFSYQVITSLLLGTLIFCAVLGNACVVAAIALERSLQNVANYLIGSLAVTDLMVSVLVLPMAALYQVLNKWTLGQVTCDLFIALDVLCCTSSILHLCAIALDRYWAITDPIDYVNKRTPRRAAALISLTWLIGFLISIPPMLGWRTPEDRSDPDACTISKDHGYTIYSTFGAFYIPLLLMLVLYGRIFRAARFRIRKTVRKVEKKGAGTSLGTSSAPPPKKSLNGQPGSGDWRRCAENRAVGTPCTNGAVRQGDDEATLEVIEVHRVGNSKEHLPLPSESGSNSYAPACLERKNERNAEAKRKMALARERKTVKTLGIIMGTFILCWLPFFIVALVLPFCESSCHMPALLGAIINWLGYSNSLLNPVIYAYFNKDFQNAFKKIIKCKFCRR

Swiss mice [8] = experiment: Body mass and survival during 10-day treatment; type: in vivo; settings: 0.3 mg/kg ip daily
Description: Figure S9. In vivo effects of chronic treatment on body mass. Body mass variation (Percent weight) (mean ±SEM) in mice throughout the 10-day i.p. treatment with 69 (0.3 mg/kg; n = 10), 100 (0.3 mg/kg; n = 8) and saline (SAL; n = 16). Data are means ±SEM. All animals survived the treatments.

SH-SY5Y cells [9] = experiment: MTS cytotoxicity assay; settings: 24 h, 5 μM and 10 μM
[10] = Chemical stability and photoisomerization by proton NMR in D2O; type: physicochemical; settings: hydrochloride salts, more than 1 year at room temperature protected from sunlight, 1H NMR in D2O
Description: Possible chemical instability and photoisomerization of E/Z isomers were also addressed as these are known liabilities of stilbene derivatives.[23] Proton NMRs of 69 (cis derivative), 84 (trans derivative), and 100 (ethyl analogue) in the form of hydrochloride salts were recorded in D2O (Figures S1–S3). […] The samples dissolved in the NMR tubes were then left on the benchtop exposed to natural daylight for 7 days, which could induce photoisomerization. […] Altogether, these studies imply reasonable stability of the compounds.
Figure S2. […] Compound 84 (trans isomer, […]
hydrochloride salt) was dissolved in D2O and the spectra were recorded at time 0 h, 1 h, 24 h and 7 days. Sample was exposed to day light in between the measurement, which could induce photoisomerization and potentially also chemical degradation.
The sample was previously stored at […]

With `NCCc1cc(O)c(O)cc1O` [6-OHDA, 6-hydroxydopamine] the “LDH release vs control” value (SH-SY5Y cells [1]) was 135%.
`NCc1ccccc1` [Benzylamine] showed a K0.5 (MAO-B [2]) of 0.268 ± 0.017 mM.
With `C#CCN1CCC(CCc2ccc(C(F)(F)F)cc2)CC1` [Compound 100, 1-(Prop-2-yn-1-yl)-4-(4-(trifluoromethyl)phenethyl)piperidine] the “parameters of the hole–board test” value (Swiss mice [3]; 10 days, 0.3 mg/kg ip daily) was “did not affect”, the “hole–board test parameters” value (Swiss mice [3]; acute ip doses of ≥10 mg/kg) was “reduced” and the “IC50(MAO-A) class” value (hMAO-A) was “na (na-not_active(RA_at_100micromolar>50%))”. The locomotor activity (Swiss mice [4]; 10 days, 0.3 mg/kg ip daily) was “did not affect”, the locomotor activities (Swiss mice [4]; acute ip doses of ≥10 mg/kg) was “reduced” and the thermodynamic solubility [5] was no less than 16.3 g/250 mL. For the same compound, the “ex vivo MAO-B activity after haloperidol-induced catalepsy test” value (MAO-B [6]) was “decreased MAO-B activity”, the “latency time to descent from the bar” value (Swiss mice [7]; 10-day i.p. 0.3 mg/kg daily) was “increased significantly” and the “reversal of haloperidol-induced catalepsy” value (Swiss mice [7]; acute i.p. 3 mg/kg) was “did not reverse the catalepsy”. The “residual activity, p-tyramine (0.5 mM), in vitro” value (MAO-A/B) was 59.4 ± 0.2%, the Ki (5-HT1A receptor) was 25.9 ± 1.5 µM and the “body mass variations versus control mice” value (Swiss mice [8]) was “No significant differences”. The cytotoxic effects (SH-SY5Y cells [9]) was “no significant cytotoxic effects” and the “chemical stability on storage” value [10] was “no signs of chemical instability”.
